Reference: patent US20120122727A1, “IN VITRO METHOD FOR PREDICTING WHETHER A COMPOUND IS GENOTOXIC IN VIVO” (priority 2009, published 2012)
Read-outs that look alike come from different tables or passages of the source.

System: primary mouse hepatocytes
Test: Gene expression in primary mouse hepatocytes, GTX vs non-GTX (four-gene classifier, 24 h)
Protocol: Hepatocyte cells were incubated and exposed to a compound for 24 h before being harvested for RNA isolation.
The results of the gene expression analysis may then be fed into a statistical software package such as R, Splus, or Microsoft Excel. […] If none or only one of these criteria were met, no point was scored.
For each of the four genes mentioned in the table (1700007K13RIK, GAS2L3, SPC25, DDIT4L), a statistical comparison was made between the normalized expression data for these genes. […] If none or only one of these criteria were met, no point was scored.
For each compound, the sum of the scores for four genes is taken. If this score is 0, a compound can be believed not to be genotoxic. If this score is 1, 2, 3 or 4, a compound is genotoxic.
If none or only one of these criteria were met, no point was scored.

[1] = 24 h exposure, average of four replicates
[2] = log 2 ratio, 24 h exposure, concentration per Table 4

score 1700007K13RIK [1] | score DDIT4L [1] | score GAS2L3 [1] | score SPC25 [1] | Structure (SMILES) | Ratios of gene expression treated/untreated 1700007K13RIK [2] | Ratios of gene expression treated/untreated DDIT4L [2] | Ratios of gene expression treated/untreated GAS2L3 [2] | Ratios of gene expression treated/untreated SPC25 [2] | Total score (sum of scores for four genes, 0 = not genotoxic, 1, 2, 3 or 4 = genotoxic) | Ratios of gene expression treated/untreated 1700007K13RIK | Ratios of gene expression treated/untreated DDIT4L | Ratios of gene expression treated/untreated GAS2L3 | Ratios of gene expression treated/untreated SPC25 | Total score | score 1700007K13RIK | score DDIT4L | score GAS2L3 | score SPC25
0 | 0 | 0 | 0 | CC(C)(c1ccc(O)cc1)c1ccc(O)cc1 [BPA, Bisphenol A] | −0.0382 | 0.0293 | −0.06 | −0.0457 | 0 | – | – | – | – | – | – | – | – | –
– | – | – | – | COc1ccc(C)cc1N [pCres, Para-Cresidine] | – | – | – | – | – | 0.2086 | 1.066 | 1.562 | 1.331 | 3 | 0 | 1 | 1 | 1
